Here are results for two molecules from paper PMC5309800, “Natural amines inhibit activation of human plasmacytoid dendritic cells through CXCR4 engagement” (Nature Communications, 2017).

Molecules are shown by their SMILES.

Assay [1] has as its target T1, CXC chemokine receptor 4 (CXCR4) (Homo sapiens, UniProt P61073). Nature of the assay: cell-based.
Assay [2] addresses T1, CXC chemokine receptor 4 (CXCR4). Nature of the assay: Tag-lite TR-FRET competition with CXCL12-red on HALO-CXCR4 cells; also inhibits […]5 antibody binding on Jurkat cells. It counts as cell-based. (In general: In TR-FRET formats the signal depends on donor and acceptor labels being close together.)

T1 sequence (P61073 whole entry): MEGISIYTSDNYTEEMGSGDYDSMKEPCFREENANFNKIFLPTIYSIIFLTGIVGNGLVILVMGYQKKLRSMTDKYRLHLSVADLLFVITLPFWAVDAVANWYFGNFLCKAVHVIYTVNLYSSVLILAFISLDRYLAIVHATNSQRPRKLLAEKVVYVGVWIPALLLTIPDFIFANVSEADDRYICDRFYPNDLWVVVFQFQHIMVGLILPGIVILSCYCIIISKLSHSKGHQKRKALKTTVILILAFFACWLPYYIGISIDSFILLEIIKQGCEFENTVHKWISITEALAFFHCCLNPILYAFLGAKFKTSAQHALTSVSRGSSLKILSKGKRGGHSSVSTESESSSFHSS

As for `NCCc1c[nH]cn1` [HA, histamine], the Ki (commonly a dissociation constant, usually derived from enzyme kinetics or from competition with a known ligand) in assay [1] is approximately 26.5 µM.
Take `NC(=NCc1ccc(Cl)cc1)SCCCc1cnc[nH]1` [CB, clobenpropit]: the affinity in assay [2] corresponds to a Ki of 1500 nM.
